Molecular target: T1, OST3 complex (Saccharomyces cerevisiae, UniProt P39007)
T1 construct: were purified separately from strains expressing only one type of complex; made in house; host or cells: Saccharomyces cerevisiae, BY4742-derived strain ost6::LEU2MX6 OST4-1D4::kanMX6 YEp352-OST3
Test: Turnover of synthetic TAMRA-labeled peptides
Format: biochemical
Details: for Turnover after 5 min / Glycopeptide detected / Relative turnover: 0.5 µM OST3 complex, 20 µM peptide; for Turnover after 5 min / Relative turnover: 150 µM LLO C20; for Glycopeptide detected: 150 µM LLO C20, 5 min; for Relative turnover: TAMRA-DANYTK turnover defined as 100 %, 5 min
Experimental: TAMRA-labeled peptides with 5-TAMRA at the N-terminus and an amide group at the C-terminus were synthesized by WatsonBio Sciences. Unlabeled peptides (Table S1) were synthesized by Genscript Corp. and were designed so that the asparagine of the glycosylation sequon was in the middle (except for Peptide 8). Lyophilized peptides were dissolved in dimethyl sulfoxide (DMSO), unless specified otherwise, to a 3 mM stock solution and further diluted in ddH2O for reactions.
Reactions were performed in a total volume of 10 μl containing the specified amount of TAMRA-labeled peptide, synthetic LLO analog, 10 mM MnCl2, and purified OST after size-exclusion chromatography in purification buffer (50 mM Hepes, pH 7.5, 150 mM NaCl, 1 mM MgCl2, 1 mM MnCl2, 10% (v/v) glycerol, 0.03% (w/v) DDM, and 0.006% (w/v) CHS). The concentration of OST was calculated using the molecular weight of 280 kDa. The reaction mixture was preincubated at 30 °C for 5 min before adding the peptide to start the reaction that proceeded at 30 °C. Time points were taken such that the reaction was in the linear phase. At each time point, 1 μl reaction mixture was taken and the reaction was stopped by dilution in stop solution (0.1% FA in 10% ACN, 10 mM KPO4 pH 8.0) such that the final peptide concentration was 2 μM.
Samples were analyzed by reverse-phase chromatography using a UPLC Dionex UltiMate 3000 with an Accucore 150-C18 100 × 2.1 mm 2.6 μm column (Thermo Fisher Scientific). One microliter sample (2 pmol of peptide) was injected and measured by isocratic elution using a certain proportion of ACN (15% ACN for peptide TAMRA-DANYTK; 20% ACN for peptide TAMRA-YANATS) in 10 mM KPO4, pH 8.0 buffer so that the glycopeptide and peptide are fully separated and elute within 3 min at a constant flow rate of 0.7 ml/min, with a column temperature of 45 °C. The peptide and glycopeptide were detected through TAMRA fluorescence (excitation wavelength: 546 nm; emission wavelength: 579 nm).
The UPLC profiles were analyzed by integrating the peaks corresponding to the glycopeptide and peptide using Chromeleon 7 (Dionex) and calculating the amount of glycopeptide formed using the following equation, as previously described ([43]): [GP]=PeakareaGP/PeakareaP+PeakareaGP×[P] […]
Supp. Table 2. Turnover of synthetic TAMRA-labeled peptides
Peptide Glycopeptide Turnover after 5 min Relative turnover […]
TAMRA, tetramethylrhodamine
Turnover of TAMRA-labeled peptides after 5 min was determined using 0.5 µM OST3 complex, 20 µM indicated peptide and 150 µM LLO C20. Relative turnover compared to TAMRA-DANYTK is given by defining TAMRA-DANYTK turnover as 100 %.

| Substance | Turnover after 5 min [%] | Glycopeptide detected | times faster glycosylation than TAMRA-DANYTK (OST3 complex, initial turnover, relative to TAMRA-DANYTK) [times] | Relative turnover [%] |
| --- | --- | --- | --- | --- |
| TAMRA-YANATS [shorter version of Peptide 5 of only six amino acid residues (TAMRA-YANATS)] | 84 | Yes | 14 | 1400 |
| TAMRA-DANYTK-NH2 [fluorescently labeled hexapeptide TAMRA-DANYTK-NH2 as the acceptor peptide, reference compound] | 6 | Yes |  | 100 |

Source: publication PMC8191290, “Substrate specificities and reaction kinetics of the yeast oligosaccharyltransferase isoforms” (The Journal of Biological Chemistry, 2021)
